A word on the IC50: it is the midpoint of a concentration-inhibition curve.

T1 sequence (P52333 810-1124): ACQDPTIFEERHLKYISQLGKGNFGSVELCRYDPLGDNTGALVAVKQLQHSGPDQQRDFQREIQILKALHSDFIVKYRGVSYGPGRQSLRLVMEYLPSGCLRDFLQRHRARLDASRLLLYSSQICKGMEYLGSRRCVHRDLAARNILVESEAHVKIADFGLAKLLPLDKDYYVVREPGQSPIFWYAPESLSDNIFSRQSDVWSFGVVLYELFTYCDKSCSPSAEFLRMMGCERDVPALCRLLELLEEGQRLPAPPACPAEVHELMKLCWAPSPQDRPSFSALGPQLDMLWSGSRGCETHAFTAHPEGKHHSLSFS

This test has as its target T1, JAK3 (recombinant human kinase domain; h-jak3(810-1124)) (Homo sapiens, UniProt P52333).
T1 construct: h-jak3(810- 1124)-sf9-c; made in house; host or cells: Sf9 insect cells
Description: Determination of IC50 of Janus Kinase (JAK) inhibition: JAK3, radioactive end-point assay with 33P-ATP. The class given is biochemical. As to conditions: JAK3 kinase domain; ATP 1.5 uM, peptide 50 uM, 20 minutes, room temperature, 10% DMSO; read-out: Ic50 h-jak3(810-1124)-sf9-c:no additive.
For `C[C@H](NC(=O)c1c[nH]c2ncc(C3CC3)nc12)c1cc[nH]n1` [Example I-37, 2-Cyclopropyl-5H-pyrrolo[2,3-b]pyrazine-7-carboxylic acid [(S)-1-(1H-pyrazol-3-yl)-ethyl]-amide], the concentration for half-maximal inhibition (IC50) stood at 22 nM.

As for `CC(=O)N[C@@H]1CCc2ccc(Oc3cnc4[nH]cc(C(=O)NC(C)C#N)c4n3)cc21` (stereo partly drawn) [Example I-298, 2-((R)-3-Acetylamino-indan-5-yloxy)-5H-pyrrolo[2,3-b]pyrazine-7-carboxylic acid (cyano-methyl-methyl)-amide], the IC50 was 387 nM.

As for `CCNC(=O)c1c[nH]c2ncc(Oc3cccc(Cl)c3)nc12` [Example I-244, 2-(3-Chloro-phenoxy)-5H-pyrrolo[2,3-b]pyrazine-7-carboxylic acid ethylamide], the IC50 was determined as 1070 nM.

Take `Cc1cc(-c2cnc3[nH]cc(C(=O)N[C@@H](C)C(C)(C)C)c3n2)sc1C(=O)N1CCS(=O)(=O)CC1` [Example I-220, 2-[5-(1,1-Dioxo-1λ^6-thiomorpholine-4-carbonyl)-4-methyl-thiophen-2-yl]-5H-pyrrolo[2,3-b]pyrazine-7-carboxylic acid ((S)-1,2,2-trimethyl-propyl)-amide]: the IC50 was 0.23 nM.

In the case of `CC(O)CC(C)(C)NC(=O)c1c[nH]c2ncc(C3CC3)nc12` (stereo not drawn) [Example I-12, 2-Cyclopropyl-5H-pyrrolo[2,3-b]pyrazine-7-carboxylic acid (3-hydroxy-1,1-dimethyl-butyl)-amide], the IC50 stood at 192 nM.

`C[C@H](NC(=O)c1c[nH]c2ncc(-c3ccc(C(=O)N4CCS(=O)(=O)CC4)s3)nc12)C(C)(C)C` [Example I-213, 2-[5-(1,1-Dioxo-1λ^6-thiomorpholine-4-carbonyl)-thiophen-2-yl]-5H-pyrrolo[2,3-b]pyrazine-7-carboxylic acid ((S)-1,2,2-trimethyl-propyl)-amide]: the IC50 is 0.11 nM.

In the case of `CC(C)NC(=O)c1c[nH]c2ncc(Oc3ccc4c(c3)[C@H](NS(C)(=O)=O)CC4)nc12` [Example I-268, 2-((R)-3-Methanesulfonylamino-indan-5-yloxy)-5H-pyrrolo[2,3-b]pyrazine-7-carboxylic acid isopropylamide], the IC50 is 155 nM.

With `Cc1ccc(CNC(=O)c2ccc(-c3cnc4[nH]cc(C(=O)N[C@@H](C)C(C)(C)C)c4n3)s2)cc1` [Example I-184, 2-[5-(4-Methyl-benzylcarbamoyl)-thiophen-2-yl]-5H-pyrrolo[2,3-b]pyrazine-7-carboxylic acid ((S)-1,2,2-trimethyl-propyl)-amide], the IC50 was 0.32 nM.

With `C[C@H](NC(=O)c1c[nH]c2ncc(C3=CCCC3)nc12)C(C)(C)O` [Example I-2, 2-Cyclopent-1-enyl-5H-pyrrolo[2,3-b]pyrazine-7-carboxylic acid ((S)-2-hydroxy-1,2-dimethyl-propyl)-amide], the IC50 turned out to be 5.23 nM.

Take `CNC(=O)N[C@@H]1CCc2ccc(Oc3cnc4[nH]cc(C(=O)NC(C)C)c4n3)cc21` [Example I-292, 2-[(R)-3-(3-Methyl-ureido)-indan-5-yloxy]-5H-pyrrolo[2,3-b]pyrazine-7-carboxylic acid isopropylamide]: the IC50 stood at 91.7 nM.

Regarding `C#CCNC(=O)c1ccc(-c2cnc3[nH]cc(C(=O)N[C@@H](C)C(C)(C)C)c3n2)s1` [Example I-198, 2-(5-Prop-2-ynylcarbamoyl-thiophen-2-yl)-5H-pyrrolo[2,3-b]pyrazine-7-carboxylic acid ((S)-1,2,2-trimethyl-propyl)-amide], the IC50 came out at 0.54 nM.

With `O=C(NC(C1CC1)C1CC1)c1c[nH]c2ncc(C3CC3)nc12` [Example I-80, 2-Cyclopropyl-5H-pyrrolo[2,3-b]pyrazine-7-carboxylic acid dicyclopropyl-methyl-amide], the half-maximal inhibitory concentration (IC50) stood at 3.9 nM.

As to `CC(NC(=O)c1c[nH]c2ncc(Oc3ccccc3F)nc12)C1CC1` (stereo not drawn) [Example I-114, 2-(2-Fluoro-phenoxy)-5H-pyrrolo[2,3-b]pyrazine-7-carboxylic acid (1-cyclopropyl-ethyl)-amide], the IC50 is 63.4 nM.

On to `CC(C)(C)[C@@H](CC#N)NC(=O)c1c[nH]c2ncc(C3CC3)nc12` [Example I-76, 2-Cyclopropyl-5H-pyrrolo[2,3-b]pyrazine-7-carboxylic acid ((R)-1-cyanomethyl-2,2-dimethyl-propyl)-amide], for which the IC50 stood at 132 nM.

With `C[C@H](NC(=O)c1c[nH]c2ncc(C3CCCC3)nc12)C(C)(C)O` [Example I-6, 2-Cyclopentyl-5H-pyrrolo[2,3-b]pyrazine-7-carboxylic acid ((S)-2-hydroxy-1,2-dimethyl-propyl)-amide], the IC50 turned out to be 126 nM.

In the case of `O=C(NCC1CCCCC1)c1c[nH]c2ncc(C3CC3)nc12` [Example I-107, 2-Cyclopropyl-5H-pyrrolo[2,3-b]pyrazine-7-carboxylic acid cyclohexylmethyl-amide], the half-inhibitory concentration (IC50) is 61.3 nM.

Turning to `C[C@H](NC(=O)c1c[nH]c2ncc(-c3ccc(C(=O)N4CCC(C(=O)O)CC4)s3)nc12)C(C)(C)C` [Example I-182, 1-{5-[7-((S)-1,2,2-Trimethyl-propylcarbamoyl)-5H-pyrrolo[2,3-b]pyrazin-2-yl]-thiophene-2-carbonyl}-piperidine-4-carboxylic acid], the IC50 was 0.32 nM.

For the compound `C[C@@H](CO)NC(=O)c1c[nH]c2ncc(C3CC3)nc12` [Example I-57, 2-Cyclopropyl-5H-pyrrolo[2,3-b]pyrazine-7-carboxylic acid ((S)-2-hydroxy-1-methyl-ethyl)-amide], the IC50 was found to be 217 nM.

`CCNC(=O)c1c[nH]c2ncc(Oc3ccccc3Cl)nc12` [Example I-265, 2-(2-Chloro-phenoxy)-5H-pyrrolo[2,3-b]pyrazine-7-carboxylic acid ethylamide]: the IC50 came out at 1100 nM.

Regarding `C[C@H](NC(=O)c1c[nH]c2ncc(Oc3ccc(F)cc3F)nc12)C(C)(C)O` [Example I-125, 2-(2,4-Difluoro-phenoxy)-5H-pyrrolo[2,3-b]pyrazine-7-carboxylic acid ((S)-2-hydroxy-1,2-dimethyl-propyl)-amide], the IC50 stood at 502 nM.

For the compound `CC(NC(=O)c1c[nH]c2ncc(Oc3ccc(F)cc3F)nc12)C1CC1` (stereo not drawn) [Example I-105, 2-(2,4-Difluoro-phenoxy)-5H-pyrrolo[2,3-b]pyrazine-7-carboxylic acid (1-cyclopropyl-ethyl)-amide], the IC50 is 103 nM.

In the case of `C[C@H](NC(=O)c1c[nH]c2ncc(-c3ccc(C(=O)N4CC(CO)(CO)C4)s3)nc12)C(C)(C)C` [Example I-218, 2-[5-(3,3-Bis-hydroxymethyl-azetidine-1-carbonyl)-thiophen-2-yl]-5H-pyrrolo[2,3-b]pyrazine-7-carboxylic acid ((S)-1,2,2-trimethyl-propyl)-amide], the IC50 turned out to be 0.13 nM.

As to `C[C@H](NC(=O)c1c[nH]c2ncc(-c3cnn(C)c3)nc12)C(C)(C)C` [Example I-141, 2-(1-Methyl-1H-pyrazol-4-yl)-5H-pyrrolo[2,3-b]pyrazine-7-carboxylic acid ((S)-1,2,2-trimethyl-propyl)-amide], the half-inhibitory concentration (IC50) came out at 0.19 nM.

For the compound `CCNC(=O)c1c[nH]c2ncc(Oc3cccc(OC)c3)nc12` [Example I-264, 2-(3-Methoxy-phenoxy)-5H-pyrrolo[2,3-b]pyrazine-7-carboxylic acid ethylamide], the IC50 is 810 nM.

With `Cc1cccc(Oc2cnc3[nH]cc(C(=O)NC(C)C)c3n2)n1` [Example I-278, 2-(6-Methyl-pyridin-2-yloxy)-5H-pyrrolo[2,3-b]pyrazine-7-carboxylic acid isopropylamide], the IC50 was 491 nM.

As for `C[C@H](NC(=O)c1c[nH]c2ncc(-c3cccs3)nc12)C(C)(C)C` [Example I-142, 2-Thiophen-2-yl-5H-pyrrolo[2,3-b]pyrazine-7-carboxylic acid ((S)-1,2,2-trimethyl-propyl)-amide], the IC50 came out at 0.18 nM.

On to `CC(C)NC(=O)c1c[nH]c2ncc(Oc3ccc4c(c3)[C@H](NC(=O)C3CC3)CC4)nc12` [Example I-284, 2-[(R)-3-(Cyclopropane-carbonyl-amino)-indan-5-yloxy]-5H-pyrrolo[2,3-b]pyrazine-7-carboxylic acid isopropylamide], for which the half-inhibitory concentration (IC50) came to 50 nM.

`CC(CO)CNC(=O)c1c[nH]c2ncc(C3CC3)nc12` (stereo not drawn) [Example I-69, 2-Cyclopropyl-5H-pyrrolo[2,3-b]pyrazine-7-carboxylic acid (3-hydroxy-2-methyl-propyl)-amide]: the 50% inhibitory concentration (IC50) is 143 nM.

With `C[C@H](NC(=O)c1c[nH]c2ncc(C3=CCCCC3)nc12)C(C)(C)O` [Example I-7, 2-Cyclohex-1-enyl-5H-pyrrolo[2,3-b]pyrazine-7-carboxylic acid ((S)-2-hydroxy-1,2-dimethyl-propyl)-amide], the IC50 was 4.51 nM.

With `Cc1csc(CNC(=O)c2ccc(-c3cnc4[nH]cc(C(=O)N[C@@H](C)C(C)(C)C)c4n3)s2)c1` [Example I-192, 2-{5-[(4-Methyl-thiophen-2-ylmethyl)-carbamoyl]-thiophen-2-yl}-5H-pyrrolo[2,3-b]pyrazine-7-carboxylic acid ((S)-1,2,2-trimethyl-propyl)-amide], the IC50 was 0.4 nM.

Turning to `CC(C)C(C#N)NC(=O)c1c[nH]c2ncc(C3CC3)nc12` (stereo not drawn) [Example I-89, 2-Cyclopropyl-5H-pyrrolo[2,3-b]pyrazine-7-carboxylic acid (1-cyano-2-methyl-propyl)-amide], the IC50 turned out to be 13.4 nM.

Consider `CC(Cc1ccc(F)cc1)NC(=O)c1ccc(-c2cnc3[nH]cc(C(=O)N[C@@H](C)C(C)(C)C)c3n2)s1` (stereo partly drawn) [Example I-159, 2-{5-[2-(4-Fluoro-phenyl)-1-methyl-ethylcarbamoyl]-thiophen-2-yl}-5H-pyrrolo[2,3-b]pyrazine-7-carboxylic acid ((S)-1,2,2-trimethyl-propyl)-amide], for which the IC50 was determined as 0.53 nM.

Regarding `CC(C)NC(=O)c1c[nH]c2ncc(Oc3ccc4c(c3)[C@H](O)CC4)nc12` [Example I-303, 2-((R)-3-Hydroxy-indan-5-yloxy)-5H-pyrrolo[2,3-b]pyrazine-7-carboxylic acid isopropylamide], the IC50 amounted to 140 nM.

(Values after US20140155376A1, “PYRROLOPYRAZINE KINASE INHIBITORS” (Hoffmann-La Roche Inc., priority 2010, published 2014).)
